The DC50 is the concentration at which degradation of the target reaches its halfway point. By IC50 is commonly meant the point on the concentration scale where inhibition reaches its midpoint.

These results are taken from PMC10982999, “Structure-Guided Design and Optimization of Covalent VHL-Targeted Sulfonyl Fluoride PROTACs” (Journal of Medicinal Chemistry, 2024).

Experiment [1] addresses T1, BRD4 (HEK293 HiBiT-BRD4 Cln3 cells) (Homo sapiens, UniProt O60885).
T1 construct: GSK; host or cells: HEK293 HiBiT-BRD4 Cln3
The experiment is described as follows: BRD4 HiBiT degradation assay. The class given is cell-based. The method, then: Figure 3 (A) Structure of BRD-SF2. […] BRD4 and loading control GAPDH levels were visualized by Western blotting. […] (D) HEK293 HiBiT-BRD4 Cln3 cells were treated with epoxomicin (1 μM) for 3 h, followed by the respective PROTAC or VHL-SF2 dose-dependently (75–0.01 μM) for 18 h. […] (E) HEK293 HiBiT-BRD4 Cln3 cells were treated with MLN4924 (1 μM) for 3 h, followed by the respective PROTAC or VHL-SF2 dose-dependently (75–0.01 μM) for 18 h. […] (F) Structure of AR-VHL-SF2 and AR2-VHL-SF2. […] The data the show mean ± SEM (n = 3).
Cellular BRD4/AR HiBiT assay
The HiBiT tagged cells were seeded at 10,000 cells per well in a 384-well plate (Thermo Scientific, 164610) at 25 µL per well in DMEM media containing 10% FBS and incubated overnight. Compounds were dispensed using D300e Digital Dispenser (HP) and normalized to 0.1% DMSO. Cells were pre-treated with Epoxomicin or MLN4924 for 3 h before treatment or directly with the PROTAC degraders for 18 or 24 h. Nano -Glo HiBiT lytic detection assay was performed as described in the manufacturer protocol (Promega). 25 µL of premixed detection reagent was added to each well of the 384 well assay plate and incubated for 15 min on an orbital shaker (at 600 RPM), and luminescence was read using a PHERAstar FS plate reader (BMG Labtech). Corresponding background RLU values were subtracted from DMSO control values and the percentage of protein (%) of were then calculated against […]
DMSO-treated controls. […]
A general note: With HiBiT, luminescence reflects the tagged protein that the partner subunit can reach.

The target in experiment [2] is T2, VCB and FAM-conjugated HIF1α-derived peptide interaction (Homo sapiens, UniProt P40337).
T2 construct: human VHL (UniPort entry P40337, residues 1 -213); 6xHis followed by TEV site (N, cleaved yes); made in house; host or cells: E. coli One Shot BL21(DE3)
The experiment is described as follows: Competitive fluorescence polarization (FP) assay, VCB / FAM-conjugated HIF1α-derived peptide. Type of experiment: binding. The settings on record: 2 h incubation between VCB and compound; read-out: apparent IC50 (FP). The method, then: We next focused on developing a second generation covalent VHL binder with enhanced potency and occupancy.
Figure 2 (A) Structure of VHL-SF2. […] (E) Competition pull-down assay from live cells between VHL-SF2-Biotin and VHL-SF2. HEK293T cells were pretreated with DMSO or varying concentrations of VHL-SF2 for 2 h at 37 °C. The cells were lysed and treated with DMSO or VHL-SF2-Biotin (50 μM) for 2 h at room temperature. A pull-down with streptavidin beads was conducted, after which the protein was resolved on SDS/PAGE. VHL and loading control GAPDH levels were visualized by Western blotting.
Figure S3. (A) Gel-based VHL labelling of VHL-SF1-Biotin, and (B) VHL-SF2-Biotin. VCB protein was pre-treated with DMSO, VHL-SF1-Biotin or VHL-SF2-Biotin for 2 h at room temperature, after which protein was resolved on SDS -PAGE and visualised by Neutravidin […]
Figure S4. Dose-response of VHL-SF1 following a 2 h pre-incubation in the presence of VCB and FAM-conjugated HIF1α-derived peptide, assessed by fluorescence polarization. Data […]
Figure S5. (A) VCB was incubated with DMSO for 24 h and subjected to intact-protein LC-MS (VHL: 24784 Da). […]
Fluorescence polarization assay protocol […]
well plate and the plate was shaken for 1 min, before reading fluorescence polarization on a Perkin Elmer Envision 2101 plate reader (excitation 486 nm, emission 535 nm). […]

`Cc1cc([C@H](C(=O)N2C[C@H](S(=O)(=O)F)C[C@H]2C(=O)N[C@@H](CC(=O)OC(C)(C)C)c2ccc(-c3scnc3C)cc2)C(C)C)on1` [VHL-SF2, tert-Butyl (S)-3-((2S,4R)-4-(Fluorosulfonyl)-1-((R)-3-methyl-2-(3-methylisoxazol-5-yl)butanoyl)pyrr-olidine-2-carboxamido)-3-(4-(4-methylthiazol-5-yl)phenyl)propanoate]: the “effect on BRD4 levels” value in experiment [1] (18 h, 75 μM-1 pM) was “did not affect BRD4 levels”. Besides, the DC50 in experiment [1] (read-out: BRD4 DC50) is more than 75 µM. Also, the IC50 in experiment [2] turned out to be 35 µM.
